Measurements published in patent US10167326B2, “Alpha-fetoprotein “ring and tail” peptides” (ALBANY MEDICAL COLLEGE, priority 2010, dated 2019).
Entries after “also recorded” stand apart in the source; their conditions may differ. Non-standard residues stand in square brackets, D forms with d. Residues, ends and D or L forms follow the SMILES beside them. Hyp = O=C(O)[C@@H]1C[C@@H](O)CN1

Key:
c-erb2 = details: after stimulation by E2 or EGF in MCF-7 cells; cited from earlier work
p21Cip1 = details: cited from earlier work
[1] = system: E2-stimulated immature mouse uterine growth; assay: immature mouse uterine growth assay (inhibition of E2-stimulated uterine growth); format: in vivo
Procedure: Four cyclic peptides of decreasing ring size (Table 1) were synthesized and were assessed for antiestrogenic activity using the immature mouse uterine assay. Negative control mice received saline alone. Positive control mice received E2 alone. AFPep was used as a positive control peptide and cyclic Scr was used as a peptide control. Mice were injected intraperitoneally (i.p.) with each of these peptides at a dose of 1 μg/mouse. One hour later mice received 0.5 ug 17β-estradiol (E2) i.p. Twenty-two hours later uteri were dissected, weighed, and normalized to body weight. The results are reported as mean±S.E (n=5) for four independent experiments.
(§1) A ‘tail’ was attached to a nine-amino acid ring and included 1 or 2 amino acids defined as hydrophilic or hydrophobic based on the nature of their side-chains. Tails comprising the following amino acid(s): serine (S), tyrosine (Y), […], glutamic acid (E), phenylalanine-serine (FS) and tyrosine-isoleucine (YI) represent hydrophilic tails and tails comprising the following amino acid(s), phenylalanine (F), isoleucine (I) and phenylalanine-isoleucine (FI) are hydrophobic tails. All peptides were administered at a dose of 1 μg/mouse intraperitoneally or 10 μg/mouse by oral gavage. Values are presented as mean±S.E. (n=5). In culture, T47D cells were treated with each peptide at a concentration of 1 μM. Values are presented as mean±S.E (n=6). […] Wilcoxon Rank Sum Test.
(§2) All peptides were administered at a dose of 1 μg/mouse intraperitoneally or 10 μg/mouse by oral gavage. Values are presented as mean±S.E (n=5). In culture, T47D cells were treated with each peptide at a concentration of 1 μM. Values are presented as mean±S.E (n=6). […] Wilcoxon Rank Sum Test.
To evaluate peptide-induced inhibition by the peptide of the present invention of estrogen-stimulated proliferation of normal tissue, the immature mouse uterine growth assay was utilized. Briefly, 13-15 day-old Swiss/Webster female mice, 6-8 g in body weight, were distributed into treatment groups of 5 mice per group so that each group contained animals of the same range of body weight. The peptide of the invention was injected i.p., s.c., or p.o. into the mice. One hour later, estradiol (E2) or vehicle control for E2 was injected i.p. Twenty-two hours after the second injection, uteri were harvested, trimmed free of mesenteries, and immediately weighed. The uterine weights were normalized to mouse body weights to compensate for differences in body weight among litters of the same age. Experiments employed a minimum of five mice per group and the mean normalized uterine weight±SE for each group was calculated. Percent growth inhibition in a test group was calculated from normalized uterine wet weights as described below.
The ability to inhibit E2-stimulated growth of normal mouse uterus was used as a screening assay for biological activity of AFPep analogs. In general, inhibitory activity ≥20% is considered to be biologically significant. Each analog's inhibitory effect on E2-stimulated growth was compared to AFPep (a positive control) and to PGVGQ (SEQ ID NO: 51)(a negative control). PGVGQ (SEQ ID NO: 51 amino acids 478-482 of AFP) is a portion of the primary structure of AFP near to the anti-cancer active site of AFP and is comprised of amino acids (P, V, and G) that are important components of AFPep.

[2] = system: T47D human breast cancer cells; assay: T47D cell proliferation assay in the presence of E2; format: cell-based
Procedure: Anticancer activity of the cyclic peptides was also evaluated using the T47D cell proliferation assay. T47D cells were cultured on collagen-IV coated 24-well plates and treated with each of above peptides in the presence of E2. Final peptide concentrations of each peptide were 10^−6 M and final E2 concentration was 1 nM. Values are reported as mean±SEM (n=6) of four independent experiments. […] One-way ANOVA followed by Tukey's multiple comparison test. p≤0.05.
as §1, §2

[3] = system: T47D human breast cancer cells; assay: as above; format: cell-based; details: different concentrations in vitro (FIG. 7)
estrogen receptor = molecular target: T1, estrogen receptor (Homo sapiens, UniProt P03372); details: cited from earlier work
T1 sequence (P03372 1-595): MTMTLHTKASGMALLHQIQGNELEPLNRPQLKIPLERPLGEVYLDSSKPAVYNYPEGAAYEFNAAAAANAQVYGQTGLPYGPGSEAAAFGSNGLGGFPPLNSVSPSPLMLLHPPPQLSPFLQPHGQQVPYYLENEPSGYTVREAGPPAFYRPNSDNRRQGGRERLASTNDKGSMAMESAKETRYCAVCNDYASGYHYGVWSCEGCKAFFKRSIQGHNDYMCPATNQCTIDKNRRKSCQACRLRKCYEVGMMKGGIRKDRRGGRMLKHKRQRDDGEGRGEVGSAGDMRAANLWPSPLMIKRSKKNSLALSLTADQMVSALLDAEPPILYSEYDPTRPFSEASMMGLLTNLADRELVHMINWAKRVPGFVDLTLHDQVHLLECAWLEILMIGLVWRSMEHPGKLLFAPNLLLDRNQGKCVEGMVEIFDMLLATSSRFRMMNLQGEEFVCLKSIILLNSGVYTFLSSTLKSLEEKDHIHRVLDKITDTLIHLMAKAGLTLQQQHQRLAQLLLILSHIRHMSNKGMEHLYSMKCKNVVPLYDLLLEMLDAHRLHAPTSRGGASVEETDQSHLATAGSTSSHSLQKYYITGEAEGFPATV

[4] = system: estrogen receptor phosphorylation at serine-118; details: cited from earlier work
p53 = details: cited from earlier work

CC(C)[C@@H]1NC(=O)[C@@H]2C[C@@H](O)CN2C(=O)[C@H]([C@@H](C)O)NC(=O)[C@H](CCCCN)NC(=O)[C@H](CCC(=O)O)NC(=O)[C@H](CC(N)=O)NC(=O)CNC(=O)[C@@H]2C[C@@H](O)CN2C(=O)[C@H](CC(N)=O)NC1=O [AFPep, cyclo[EKTOVNOGN], reference compound] (cyclo(EKT[Hyp]VN[Hyp]GN))
transactivation of c-erb2 leading dephosphorylated ERK1/2 (c-erb2): prevent the transactivation of c-erb2
nuclear p21Cip1 activation (p21Cip1): increases
antiestrogenic activity of cyclic analogs of different ring size (uterine growth inhibition) ([1]; 1 μg/mouse i.p. (FIG. 5A)): significantly better inhibition of E2-stimulated growth in vivo and in vitro than the other analogs
uterine growth inhibition dose response of AFPep combined with antagonist analog ([1]; combination of AFPep and ring and tail antagonist with disrupted pharmacophore and hydrophilic tail (FIG. 11, 12)): restored by addition of the antagonist analog; also recorded: can be overcome by using a combination of AFPep and an analog with a hydrophilic tail; also recorded: sigmoidal dose range curve
inhibition of E2-stimulated uterine growth, dose response profile ([1]; over a number of doses (FIG. 6)): significantly inhibited E2-stimulated uterine growth to a dose of 10 μg and then loses its effectiveness at higher doses
Inhibition ± S.E, % T47D cell proliferation ([2]; peptide 1 μM, E2-stimulated, mean±S.E (n=6), * p<0.05 vs E2 alone): 51 ± 4* %
anticancer activity of cyclic analogs of different ring size (T47D proliferation inhibition) ([2]; peptide 10^−6 M, E2 1 nM (FIG. 5B)): significantly different from the other analogs; also recorded: significantly better inhibition of E2-stimulated growth in vivo and in vitro than the other analogs
inhibition of E2-stimulated T47D human breast cancer cell growth, concentration response profile [3]: inhibited E2-stimulated T47D cell growth up to a concentration of 10^−6M and then loss its effectiveness at higher concentrations
binding to the E2-binding site of the estrogen receptor (estrogen receptor): does not bind
E2-induced estrogen receptor phosphorylation at serine-118 [4]: significantly inhibited
serine-15 phosphorylation on p53 (p53): significantly increased
